Results taken from patent publication US11690851B2, “Methods and compositions comprising ursolic acid and/or resveratrol for treating diabetes, or cancer” (priority 2014, dated 2023).

How the values were obtained:
L6 myotubes = assay: cellular glucose uptake ([3H]-2DG); assay type: cell-based; details: Ins 100 nM, Met 1 mM, UA 10 uM, RES 100 uM
Procedure: L6 myotubes were incubated with UA (10 μM) at different time points.

Akt = Akt phosphorylation in L6 myotubes; assay type: cell-based; details: UA 10 μM
Procedure: (§1) L6 myotubes were incubated with UA (10 μM) at different time points. Ursolic acid induced Akt phosphorylation by 1.8, 1.7, and 1.8 fold increase at 30, 45, and 60 min. […] Treatment of L6 myotubes with UA (10 μM) or RES (100 μM) for 30 min increased AMPK phosphorylation by 1.7 and 5.3 fold, respectively.

NFKB subunit p65 = assay: TNFα-mediated p65 phosphorylation in HaCaT keratinocytes, Western blot; assay type: cell-based, human; details: preliminary experiments, RES 100 and 200 μM, UA 10 and 20 μM, single agents
Procedure: Western blotting: HaCaT cells were treated with sub-optimal doses of RES, UA, or RES+UA and stimulated with 10 ng/ml human tumor necrosis factor alpha (TNFα) for 30 min. Cells were scraped into lysis buffer containing 1% Triton X-100, 0.5% IGEPAL, 0.05 M TrisHCl and 0.1 M NaCl as well as protease/phosphatase inhibitors and 5 mM EDT A. For in vivo studies, whole skin was placed on glass over ice and epidermis was removed by scraping and placed in RIPA buffer with protease/phosphatase inhibitors. Lysates were homogenized and proteins were extracted by centrifugation. Twenty micrograms of protein was separated on Bis-Tris gels and transferred onto PVDF membranes. Membranes were blocked in 5% dry milk or BSA and incubated with primary antibodies overnight at 4° C. Membranes were incubated with corresponding HRP-conjugated secondary antibodies for one hour and developed.
As mentioned before, NFKB activity is important during the tumor promotion phase.

SENCAR mice [1] = assay: TPA-induced epidermal proliferation (BrdU IHC) in mouse skin; assay type: in vivo
Procedure: (§2) Animals and treatment: Female SENCAR mice, 6-7 weeks old, were purchased from NCI Frederick (Frederick, Md.). The dorsal skin of SENCAR mice were shaved and treated topically twice per week for 2 weeks with 200 μL acetone vehicle or 1-3 μmol UA, 1-3 μmol RES, or an equimolar combination of RES and UA. Each treatment was followed 30 minutes later with topical application of 200 μL acetone vehicle or 1-2 μg of the tumor promoter TPA. In vivo sample collection: Animals were sacrificed 6 hr after the final TPA treatment for Western blotting and 48 hr after the final TPA treatment for histology. For immunohistochemical (IHC) analysis of epidermal proliferation five mice per group were i.p. injected with 100 mg/kg Bromodeoxyuridine (BrdU) in PBS 30 min prior to sacrifice. 1 cm^2 of mouse skin from treated areas was fixed in formalin and paraffin embedded to be analyzed via IHC. Immunohistochemistry (IHC): Slides were immunostained with anti-BrdU antibody. The percentage of BrdU-positive cells in the basal cell layer was determined from at least 10 randomly selected sites per slide (5 mice/group). In addition, the epidermal thickness of each skin sample was also measured at 10 random sites for 5 mice/group, using Image Pro-Discovery from Media Cybernetics (Bethesda, Md.).

[2] = test system: Akt substrate 160 (AS160); assay: AS160 phosphorylation in L6 myotubes; assay type: cell-based; details: UA 10 μM
Procedure: as §1

SENCAR mice [3] = assay: TPA-mediated epidermal thickening (hyperplasia) in mouse skin; assay type: in vivo; details: for 2 μg TPA-mediated epidermal thickening: topical 1, 2, or 3 μmol total dose, single agent
Procedure: as §2

AMPK = AMPK phosphorylation in L6 myotubes; assay type: cell-based; details: 30 min, UA 10 μM, RES 100 μM, alone or combined
Procedure: as §1

NFKB = assay: Luciferase assay for NFKB activity in HaCaT cells; assay type: cell-based, human
Procedure: Luciferase assay for NFKB activity: HaCaT cells were transfected with the NFKB Cignal Reporter Assay Kit from Qiagen, using Attractene transfection reagent, per manufacturer's instructions. Cells were plated at 1.5×10^4 cells/well in 96 well plates during the transfection. After 16 hr transfection, cells were resupplied with OptiMEM containing 0.5% FBS, 1% non-essential amino acids, 50 U/ml penicillin, and […] for 24 hr. Cells were pretreated with various doses of RES or vehicle for 1 hr, followed by UA or vehicle for 1 hr. TNFα at 10 ng/ml was added and cells were incubated for 4 hr. Luminescence of both the TNFα-induced firefly luciferase and the transfection control Renilla luciferase were measured using the Dual-Luciferase Reporter Assay System from Promega and quantified using a Biotek Synergy HT spectrophotometer.

[4] = test system: Ca3/7 mouse squamous carcinoma cells; assay: MTT assay for cell viability, Ca3/7; assay type: cell-based; details: Ca3/7 cells, 200 μM RES
Procedure: MTT assay for cell viability: Cells were plated at 1.5×10^4 cells/well on 96-well plates. Cells were pretreated with RES or 0.1% vehicle for 1 hr followed by various doses of UA or 0.1% DMSO vehicle for 24 hr. In the experiment with A549 cells, 5.0×10^3 cells/well were plated, and cells were treated with UA or 0.1% DMSO for 48 hr after 1 hr pretreatment with RES or vehicle. MTT reagent (0.5 mg/ml) was added, and cells were incubated for an additional 2.5 hr. Media was removed and formazan crystals were dissolved with 100 μl DMSO. Plates were measured at 570 nm with background subtraction at 650 nm, using a Biotek Synergy HT spectrophotometer. Statistical Analyses: Differences between individual groups were determined by ANOVA. IC50 values were calculated with GraphPad Prism. Resistance Reversal (RR) was calculated by dividing the IC50 value of the UA+vehicle group by the IC50 value of the UA+RES group.

[5] = 1-3 μmol doses, assayed 48 hr after the final TPA treatment

Compound: CN(C)C(=N)N=C(N)N [Met, Metformin, reference compound]
- Mean [3H]-2DG per Min per Protein [ ] (L6 myotubes): 232.19 pmol/mg/min
- Mean [3H]-DPM corrected for CYTO B (L6 myotubes): 19718.32 DPM/mg
- fold change from DMSO (L6 myotubes): 1.94 fold

Compound: C[C@H]1[C@H](C)CC[C@]2(C(=O)O)CC[C@]3(C)C(=CC[C@@H]4[C@@]5(C)CC[C@H](O)C(C)(C)[C@@H]5CC[C@]43C)[C@H]12 [UA, Ursolic acid]
- Mean [3H]-2DG per Min per Protein [ ] (L6 myotubes): 257.35 pmol/mg/min
- Mean [3H]-DPM corrected for CYTO B (L6 myotubes): 21855.37 DPM/mg
- fold change from DMSO (L6 myotubes): 2.15 fold
- Akt phosphorylation fold increase (Akt; 30 min): 1.8 fold
- Akt phosphorylation fold increase (Akt; 45 min): 1.7 fold
- Akt phosphorylation fold increase (Akt; 60 min): 1.8 fold
- TNFα-induced NFKB activity (phosphorylation of p65) (NFKB subunit p65): moderate effect
- 2 μg TPA-induced epidermal proliferation (SENCAR mice [1]; 3 μmol of UA alone): significantly decreased
- 2 μg TPA-induced epidermal proliferation (SENCAR mice [1]; [5]): limited effect
- 1 μg TPA-induced epidermal proliferation (SENCAR mice [1]; UA alone, 1-3 μmol): dose-dependently decreased
- AS160 phosphorylation increase ([2]; 15 min): 1.3 fold
- AS160 phosphorylation increase ([2]; 30 min): 2.5 fold
- AS160 phosphorylation increase ([2]; 45 min): 1.6 fold
- AS160 phosphorylation increase ([2]; 60 min): 2.3 fold
- effect of 1 μg TPA on epidermal thickening (SENCAR mice [3]; UA alone, 1-3 μmol): dose-dependently decreased
- 2 μg TPA-mediated epidermal thickening (SENCAR mice [3]): dose-dependently reversed
- AMPK phosphorylation increase (AMPK): 1.7 fold
- TNFα-stimulated NFKB activity (luciferase reporter) (NFKB; UA alone): dose-dependently decreases

Compound: Oc1ccc(C=Cc2cc(O)cc(O)c2)cc1 [RES, resveratrol]
- Mean [3H]-2DG per Min per Protein [ ] (L6 myotubes): 244.97 pmol/mg/min
- Mean [3H]-DPM corrected for CYTO B (L6 myotubes): 37819.44 DPM/mg
- fold change from DMSO (L6 myotubes): 2.05 fold
- TNFα-induced NFKB activity (phosphorylation of p65) (NFKB subunit p65): moderate effect
- 2 μg TPA-induced epidermal proliferation (SENCAR mice [1]; [5]): limited effect
- UA-mediated growth suppression with RES [4]: increases the sensitivity
- effect of 1 μg TPA on epidermal thickening (SENCAR mice [3]; 2 and 3 μmol doses of RES alone): no effect
- 2 μg TPA-mediated epidermal thickening (SENCAR mice [3]): no effect
- AMPK phosphorylation increase (AMPK): 5.3 fold
- NFKB activity (luciferase reporter) (NFKB; RES alone 100 and 200 μM): partially inhibited
